Results on 5 compounds are retold here after patent US20220185764A1, “Resveratrol derivative and anti-fibrotic method using the same” (TAIZHOU HUAYUAN MEDICINAL TECH CO. LTD., priority 2020, published 2022).

Series [1] concerns CCl4 induced liver fibrosis in rats. Description: Evaluation of anti-liver fibrosis in vivo (CCl4 induced liver injury/fibrosis). Further details: species or system SD rats. The note with it: test compound 10 mg/ml, 0.5 ml/100 g intragastric 1 time/day, 8 weeks; for GSH-PX / HYP / MDA / SOD: liver tissue, ELISA kit, CCl4 rats; for ALP / ALT / AST / LDH: serum, male SD rats, 40% CCl4 oil i.p. 1 time/3 days. How it is done: CCl4 was prepared into a 40% CCl4 oil with commercially available non-genetically modified peanut oil. The test compound was prepared into a 10 mg/ml solution with a 0.5% sodium carboxymethyl cellulose solution, for later use.
Adult male SD rats were randomly divided into a normal control group, a model group and a drug treatment group. The rats in the normal control group were intraperitoneally injected with peanut oil (0.3 ml/100 g, 1 time/3 days), and intragastrically administrated with 0.5% sodium carboxymethyl cellulose solution (0.5 ml/100 g, 1 time/1 day). The rats in the model group were intraperitoneally injected with 40% CCl4 oil (0.3 ml/100 g, 1 time/3 days), and intragastrically administrated with 0.5% sodium carboxymethyl cellulose solution (0.5 ml/100 g, 1 time/day). The rats in the drug treatment group were intraperitoneally injected with 40% CCl4 oil (0.3ml/100 g, 1 time/3 days), and intragastrically administrated with the 0.5% sodium carboxymethyl cellulose solution of the test compound (0.5 ml/100 g, 1 time/day). Rats in each group were bred in an air-conditioned animal laboratory with a temperature of (23±1)° C. and a relative humidity of (45±5)%, with day and night alternating every 12 hours, and they were free to eat and drink.
After being fed for 8 weeks, all the rats were fasted for 12 hours. After anesthesia, the blood of the rat was collected from the femoral artery, and the whole liver tissue was quickly weighed and frozen in liquid nitrogen for later use. 3 rats in each group were taken and their livers were cut, soaked into formalin solution for 24 h and prepared to paraffin-embedded pathological sections. The whole blood of the rats was centrifuged at 3000 r/min for 10min to obtain the separated serum, which was then frozen and stored for later use.
Alanine aminotransferase (ALT), aspartate aminotransferase (AST), alkaline phosphatase (ALP), and lactate dehydrogenase (LDH) in the serum were measured by Hitachi 7600 automatic biochemical analyzer.
The concentration of hydroxyproline (HYP) or malondialdehyde (MDA), and the activity of superoxide dismutase (SOD) or glutathione peroxidase(GSH-Px) in liver tissues were detected according to the corresponding operation steps of ELISA kit (Nanjing Jiancheng Biological Company).

The test system of series [2] is bleomycin-induced pulmonary fibrosis in rats. The experiment in a line: Evaluation of anti-pulmonary fibrosis in vivo (bleomycin-induced). Further details: species or system SD rats. To be noted: lung tissue, 14th day. On the procedure:
Bleomycin (batch number: 16037911, Hisun Pfizer Co., Ltd.) was prepared into a 5 mg/mL solution with normal saline; and the test compound was prepared into a solution with a 0.5% sodium carboxymethyl cellulose solution to a certain concentration for later use.
Adult male SD rats were randomly divided into a normal control group, a model group and a drug treatment group. After the animals in each group were anesthetized by intraperitoneal injection of 20% urethane (10 mL/kg), they were incised in the middle of the neck to expose the trachea. The rats in the normal control group were injected with 0.2 ml normal saline into the trachea all at once, and intragastrically administrated with 0.5% sodium carboxymethyl cellulose solution (0.5 ml/100 g, 1 time/day) the next day. The rats in the model group were injected with 0.2 ml of bleomycin solution into the trachea all at once, and simultaneously intragastrically administrated with 0.5% sodium carboxymethyl cellulose solution (0.5 ml/100 g, 1 time/day). The rats in the drug treatment group were injected with 0.2 ml bleomycin solution into the trachea all at once and simultaneously intragastrically administrated with the 0.5% sodium carboxymethyl cellulose solution of the test compound at different concentrations (0.5 ml/100 g, 1 time/day). The rats in each group were bred in an air-conditioned animal laboratory with a temperature of (23±1)° C. and a relative humidity of (45±5)%, with day and night alternating every 12 hours, and they were free to eat and drink. The rats were fasted for 12 hours on the 14th day after administration. After anesthesia, the blood of the rat was collected from the femoral artery and the lung tissue was separated. The right lung was perfused with 10% neutral formaldehyde through the trachea and then was put into stationary liquid for fixation and pathological examination. The left lung was cryopreserved in a refrigerator at -80° C. for testing the biochemical indicators.
The contents of HYP, MDA, GSH and SOD in lung tissues were detected according to the corresponding operation steps of ELISA kit (Nanjing Jiancheng Biological Company).

The subject of the next series is liver function in mice. The experiment in a line: Evaluation of subacute toxicity (continuous administration, liver function). Also noted: AST / ALP: unit not given here. To be noted: serum; male ICR mice, 200 mg/kg intragastric once a day for 4 consecutive weeks. In kind it is in vivo. On the procedure:
Male ICR mice aged 6-8 weeks were fasted for 16 hours and randomly divided into groups, 5 mice per group. The test compound was formulated into a suspension with a 0.5% sodium carboxymethyl cellulose solution, and administered intragastrically at a concentration of 200 mg/kg, once a day for 4 consecutive weeks. After the last administration, the mice were fasted for 12 hours but were free to drink water during the fasting period. Then the mice were anesthetized. Blood was taken from the abdominal aorta and serum was prepared for the determination of blood biochemical and immunological indicators. EDTA anticoagulant blood was prepared for routine blood measurement. Except for some significant increase in transaminase (ALT, AST, […]) of some drug administration groups, there were no significant differences in other indicators among the groups.

The mark [3] stands for this setting: dose 50 mg/kg intragastric 1 time/day.
Where [4] appears, read: dose 100 mg/kg intragastric 1 time/day.

For `COc1ccc(/C=C/c2cc(OC)cc(OCCCC(C)(C)C(=O)O)c2)cc1` [Compound I-1b, 3,4′-dimethoxy-5-(4-methyl-4-carboxypentyloxy)-(E)-stilbene], in series [1], the GSH-PX was 204.78 ± 27.75 U/mg protein, the HYP turned out to be 0.59 ± 0.06 μg/mg protein, the MDA is listed as 0.72 ± 0.12 nmol/mg protein and the SOD is reported as 29.99 ± 5.24 U/mg protein. In addition, in series [1], the ALP came to 149.9 ± 52.9 U/L, the ALT was 85.3 ± 46.4 U/L, the AST amounted to 209.1 ± 63.2 U/L and the LDH amounted to 843.1 ± 247.9 U/L. For the same compound, in series [2] (setting [3]), the HYP was 0.71 ± 0.17 μg/mg protein and the MDA stood at 0.91 ± 0.05 nmol/mg protein. In series [2] (setting [4]), the HYP came to 0.54 ± 0.12 μg/mg protein and the MDA was 0.84 ± 0.09 nmol/mg protein. Further, in the series on liver function in mice, the ALP is 471.35 ± 29.88, the ALT turned out to be 47.33 ± 10.61 U/L and the AST worked out at 161.6 ± 18.32.
In series [1], `[2H]C([2H])([2H])Oc1ccc(/C=C/c2cc(OCCCC(C)(C)C(=O)O)cc(OC([2H])([2H])[2H])c2)cc1` [Compound I-2b, 3,4′-bis-[(trideuteratedmethyl)-oxy]-5-(4-methyl-4-carboxypentyloxy)-(E)-stilbene] showed a GSH-PX of 231.48 ± 58.72 U/mg protein, an HYP of 0.58 ± 0.29 μg/mg protein, an MDA of 0.70 ± 0.08 nmol/mg protein and an SOD of 33.60 ± 7.64 U/mg protein. In series [1], this compound came in with an ALP of 141.6 ± 27.6 U/L, an ALT of 69.1 ± 23.3 U/L, an AST of 192.4 ± 78.4 U/L and an LDH of 836.5 ± 375.5 U/L. Moreover, in series [2] (setting [3]), the HYP is 0.52 ± 0.11 μg/mg protein and the MDA was 0.75 ± 0.13 nmol/mg protein. In series [2] (setting [4]), this compound came in with an HYP of 0.45 ± 0.08 μg/mg protein and an MDA of 0.76 ± 0.06 nmol/mg protein. In the series with liver function in mice, the ALP is 242.83 ± 83.29, the ALT stood at 26.47 ± 6.79 U/L and the AST stood at 105.33 ± 16.85.
In series [1], `[2H]C([2H])([2H])Oc1ccc(/C=C/c2cc(OC)cc(OCCCC(C)(C)C(=O)O)c2)cc1` [Compound I-3b, 3-methoxy-4′-trideuterated methoxy-5-(4-methyl-4-carboxypentyloxy)-(E)-stilbene] yielded a GSH-PX of 194.09 ± 32.82 U/mg protein, an HYP of 0.70 ± 0.61 μg/mg protein, an MDA of 0.92 ± 0.43 nmol/mg protein and an SOD of 31.33 ± 6.50 U/mg protein. Also, in series [1], the ALP came to 154.3 ± 65.0 U/L, the ALT is 79.9 ± 43.8 U/L, the AST amounted to 221.9 ± 109.4 U/L and the LDH came out at 780.4 ± 152.3 U/L. In series [2] (setting [3]), this compound showed an HYP of 0.51 ± 0.09 μg/mg protein and an MDA of 0.81 ± 0.09 nmol/mg protein. In series [2] (setting [4]), the HYP stood at 0.47 ± 0.10 μg/mg protein and the MDA was 0.73 ± 0.06 nmol/mg protein. Besides, in the series with liver function in mice, the ALP is recorded as 381.67 ± 221.42, the ALT was 36.57 ± 10.40 U/L and the AST was 138.32 ± 29.72.
Consider `[2H]C([2H])([2H])Oc1cc(/C=C/c2ccc(OC)cc2)cc(OCCCC(C)(C)C(=O)O)c1` [Compound I-4b, 3-trideuterated methoxy-4′-methoxy-5-(4-methyl-4-carboxypentyloxy)-(E)-stilbene], for which, in series [1], the GSH-PX amounted to 224.33 ± 2.16 U/mg protein, the HYP amounted to 0.68 ± 0.27 μg/mg protein, the MDA turned out to be 0.77 ± 0.14 nmol/mg protein and the SOD was found to be 28.64 ± 6.33 U/mg protein. Moreover, in series [1], the ALP turned out to be 140.8 ± 60.2 U/L, the ALT is on record as 91.3 ± 32.5 U/L, the AST is 233.5 ± 90.6 U/L and the LDH was found to be 771.1 ± 210.2 U/L. Also, in series [2] (setting [3]), the HYP came out at 0.74 ± 0.19 μg/mg protein and the MDA is reported as 0.96 ± 0.19 nmol/mg protein. In series [2] (setting [4]), this compound showed an HYP of 0.59 ± 0.12 μg/mg protein and an MDA of 0.78 ± 0.24 nmol/mg protein. In the series with liver function in mice, the ALP was determined as 258.33 ± 219.45, the ALT is 16.07 ± 2.45 U/L and the AST was 72.73 ± 15.82.
`Oc1ccc(C=Cc2cc(O)cc(O)c2)cc1` [Resveratrol]: in series [1], the GSH-PX is 174.33 ± 40.75 U/mg protein, the HYP was determined as 0.93 ± 0.15 μg/mg protein, the MDA turned out to be 1.17 ± 0.35 nmol/mg protein and the SOD was 28.09 ± 4.55 U/mg protein. Further, in series [1], the ALP was 203.6 ± 43.9 U/L, the ALT was 96.8 ± 41.9 U/L, the AST is listed as 205.33 ± 85.3 U/L and the LDH is 846.5 ± 261.2 U/L. In series [2] (setting [4]), this compound yielded an HYP of 0.75 ± 0.34 μg/mg protein and an MDA of 0.92 ± 0.33 nmol/mg protein.
